Data published in patent US6403635B1, “Method of treating atherosclerosis or restenosis using microtubule stabilizing agent” (The United States of America as represented by the …, priority 1993, dated 2002).
pIC50: −log10 of the molar value.

Key:
[1] = tested on: Vascular Smooth Muscle Cells (VSMCs); experiment: Chemoinvasion (Boyden chamber) assay, PDGF-BB as attractant; type: cell-based, rat
Description: (§1) Vascular Smooth Muscle Cells (VSMCs) were isolated by collagenase/elastase enzymatic digestion of the medial layers of the rat aorta obtained from 6 month old Wistar rats. The cells were maintained in culture with 10% fetal calf serum, high glucose DMEM, and amino acid supplement. Cell cultures were maintained at 37° C. in 5% CO2.
(§2) Chemoinvasion (Boyden chamber) assays were performed using modified Boyden chamber (Albini, et al. (1987) Cancer Res., 47:3239-3245), comprising an upper chamber separated from a lower chamber by a porous PVPF filter. PVPF filters (8 μm pore diameter, Nucleopore Filters, Pleasanton, Calif.) were coated and air dried consecutively with solutions containing 100 μg/ml type I collagen, 5 μg/ml fibronectin, and 5 μg reconstituted basement membrane (produced from the Englebreth-Holm-Swarm tumor (Kleinman, et al. (1986) Biochemistry, 25:312-318), producing a continuous 10 μm thick coating of matrix material. Boyden chambers were assembled by adding 10 ng/ml PDGF BB in DMEM to the lower (chemoattractant) chamber. Cells (approximately 200,000) suspended in DMEM containing 0.1% BSA were then added to the upper chamber. […] The chambers were then incubated for 4 hours at 37° C. in a 5% CO2 atmosphere. At the end of the incubation period, the cells were fixed and stained with hematoxylin and eosin. The cells on the upper surface (non-invaders) were mechanically removed and the cells on the underside of the filter (invaders) were counted under 400× magnification (four random fields were counted per filter and all experiments were run in triplicate, and each triplicate assay was repeated at least three times on separate occasions using different VSMC preparations). Chemotaxis was assayed in analogous fashion in the Boyden chambers described above, except that the reconstituted basement membrane was omitted.
as §1, with “VSMC's” for “Vascular Smooth Muscle Cells (VSMCs)”, “collagense/elastase” for “collagenase/elastase”
Chemoinvasion assays were performed using a modified Boyden chamber, consisting of an upper chamber separated from a lower chamber by a porous PVPF filter. PVPF filters (8 μm pore diameter, Nucleopore Filters Pleasanton, Calif.) were coated and air dried consecutively with solutions containing 100 μg/ml type I collagen, […] fibronectin, and 5 μg reconstituted basement membrane (produced from the Englebreth-Holm-Swarm tumor), producing a continuous 10 μm thick coating of matrix material. Boyden chambers were assembled with PDGF-BB 10 ng/ml in DMEM in the lower (chemoattractant) chamber, then cells (approximately 200,000) suspended in DMEM containing 0.1% BSA were added to the upper chamber. Some of the cells used in these assays were pretreated 18 hours with deuterium oxide (25%, 50%, or 75% v/v substitution for H2O) in culture. In the deuterium oxide-treated groups, ^2H2O substituted DMEM (v/v) was added to the upper and lower chambers at the same concentration as that used for pretreatment. The chambers were then incubated for 4 hours at 37° C. in a humidified 5% CO2 atmosphere. […] After the cells on the upper surface of the filter (non-invaders) were mechanically removed, the cells on the underside (invaders) were counted under 400 X magnification (four random fields were counted per filter and all experiments were run in triplicate).

VSMC [2] = experiment: Chemotaxis assay (Boyden chamber without basement membrane proteins), PDGF-BB as attractant; type: cell-based, rat; details: filter coated only with fibronectin and collagen I
Description: as §2, with “Chemotaxis was assayed in analogous fashion in the Boyden chambers described above, except that the reconstituted basement membrane was omitted.” left out

[3] = tested on: VSMC collagenase secretion; experiment: Gelatinase zymography of Boyden assay supernatants; type: cell-based, rat; details: taxol range 30 pM to 100 nM
Description: Gelatinase zymography was performed on the superannuates removed after the 4 hour conclusion of the Boyden assays described above. Gelatin-degrading proteinases secreted into the media by VSMCs were analyzed by non-reducing sodium dodecyl sulfate-polyacrylamide gel electrophoresis in 10% polyacrylamide gels containing 0.1% (w/v) gelatin. Following electrophoresis, the gelatinases were renatured by incubating the gel for 30 min. at 23° C. in 2.5% (v/v) Triton X-100 followed by 18 hour incubation at 37° C. in 0.2 M NaCl, 5 mM CaCl2 0.02% Brij 35 (w/v), 50 mM Tris-HCI (pH 7.6). The gels were stained for 90 minutes with 0.5% Coomassie Brilliant Blue G-250 and destained with 10% acetic acid, 40% methanol. Gelatinolytic activity was indicated by a clear band against the background of the blue-stained gelatin.

c-fos mRNA expression = experiment: PDGF-BB-stimulated c-fos mRNA expression in cultured VSMC; type: cell-based, rat
rat carotid artery = experiment: Balloon catheter injury of the rat carotid artery (restenosis model); type: in vivo, Wistar rats
Description: Under a protocol approved by the National Institute on Aging Animal Care and use Committee, 6 month Wistar rats from the GRC colony wee anesthetized with 20 mg/kg body weight phenobarbital, 2 mg/kg body weight ketamine, and 4 mg/kg body weight xylazine intraperitoneally. The left external carotid artery was cannulated with 2-French Fogarty embolectomy catheter, inflated with saline and passed three times up and down the common carotid artery to produce a distending, deendothelializing injury. […] Cross sections of the carotids were mounted on microscope slides and stained with hematoxylin and eosin stain. The image of the carotid artery was projected onto a digitizing board and the cross sectional areas of the intima and the media were measured. As indicated in the prior art (Ferns, G. A. A. et al. (1991) Science, 253:1129-1132) the rat carotid artery injury model of restenosis can be useful in the study of human restenosis, and indicate potential therapeutic action in humans.

polymerized tubulin = experiment: Microtubule bundling in cultured VSMC (anti-tubulin antibody labelling); type: cell-based, rat
Description: In deuterium oxide-treated cells, ^2H2O (v/v) was substituted for water (H2O) in the preparation of the DMEM from concentrated stock. […], cells were fixed in 3.7% formalin, premeabilized with 1% Triton X-100, and polymerized tubulin was labelled with mouse anti-β-tubulin antibody (SMI 62 monoclonal antibody to polymerized β-tubulin, Paragon Biotec, Inc., Baltimore, Md.). […] Representative light photomicrographs from (FIG. 5A) control, and (FIG. 5B) 75% deuterium oxide treated VSMCs are shown in FIGS. 5A-5B.

VSMC [4] = experiment: [3H]thymidine incorporation in cultured VSMC
VSMC [5] = experiment: Bromodeoxyuridine (BrDU) incorporation in cultured VSMC; type: cell-based, rat; details: various 2H2O concentrations
Description: Incorporation of the thymidine analog, bromodeoxyuridine (BrDU) was measured to determine the effect of deuterium oxide on VSMC DNA synthesis. […] Following 20 hr incubation in 10% FCS+DMEM at various ^2H2O concentrations, 10 μM BrDU was added and the incubation continues for an additional 4 hr. […] The cells were incubated for 2 hr with 1N HCl to denature the DNA, and subsequently washed 4 times in PBS. Mouse monoclonal BrDU antibody (Boehringer Mannheim) in 2% BSA-PBS was incubated with cells for 1 hr. After PBS wash, goat anti-mouse antibody conjugated with alkaline phosphatase was added. Cell nuclei containing BrDU substituted for thymidine stained red with alkaline phosphatase substrate, while all other nuclei stained blue. The fraction of BrDU-positive nuclei was compared between control (defined as 100%) and that of the deuterium oxide-pretreated groups.

[6] = cross sectional area, 2 mg/kg i.p., 11 days after injury

| Structure (SMILES) | inhibition of VSMC invasion at 30 pM ([1]; 30 pM (the lowest dose used)) | inhibition of VSMC invasion at 100 nM ([1]; 100 nM taxol) | pIC50 ([1]; Rattus norvegicus, VSMC, 18 h pretreatment, PDGF-BB attractant, 4 h incubation, read-out: half-maximal inhibitory concentration, VSMC invasion) | outcome of chemotaxis assay compared with chemoinvasion assay (VSMC [2]) | level of VSMC collagenase secretion compared to control [3] | pIC50 (c-fos mRNA expression; Rattus norvegicus, cultured VSMC, read-out: half-maximal inhibitory concentration, PDGF-BB-stimulated c-fos mRNA expression) | inhibition of c-fos mRNA expression above 20 nM (c-fos mRNA expression; above 20 nM taxol) | reduction of neointimal area compared to vehicle treated animals (rat carotid artery; 2 mg/kg i.p. once daily, 11 days after injury) [%] | Intima (rat carotid artery; [6]) [mm^2] | Media (rat carotid artery; [6]) [mm^2] | I/M (rat carotid artery; intima/media ratio, 2 mg/kg i.p., 11 days after injury) | discernible neointima in taxol-treated animals (rat carotid artery; several of the taxol-treated animals, denuded endothelium present) | microtubule bundling in VSMC's cultured on plastic (polymerized tubulin; 0.1, 1, 10 nM taxol, 18-hour pre-treatment) | inhibition of [3H]thymidine incorporation at 1 nM (VSMC [4]; 1 nM taxol) | inhibition of [3H]thymidine incorporation at 100 nM (VSMC [4]; 100 nM taxol) | pIC50 (VSMC [4]; Rattus norvegicus, VSMC, read-out: half-maximal inhibitory concentration, VSMC [3H]thymidine incorporation) | inhibition of VSMC Boyden chamber invasion at 75% 2H2O ([1]; 75% 2H2O) | half-maximal inhibition of PDGF-mediated VSMC Boyden chamber invasion ([1]; 18 h pretreatment, v/v substitution for H2O) [% 2H2O] | effect on cultured VSMC proliferation and DNA synthesis (BrDU incorporation) (VSMC [5]) | microtubule hyperpolymerization in cultured VSMCs (polymerized tubulin; 18 hours with 25%, 50% or 75% deuterium oxide) |
| --- | --- | --- | --- | --- | --- | --- | --- | --- | --- | --- | --- | --- | --- | --- | --- | --- | --- | --- | --- | --- |
| CC(=O)O[C@H]1C(=O)[C@@]2(C)[C@H]([C@H](OC(=O)c3ccccc3)[C@]3(O)C[C@H](OC(=O)[C@H](O)[C@@H](NC(=O)c4ccccc4)c4ccccc4)C(C)=C1C3(C)C)[C@]1(OC(C)=O)CO[C@@H]1C[C@@H]2O [Taxol] | significant inhibition | essentially complete inhibition | 9.30 | identical outcome | did not vary significantly | 9.00 | essentially complete inhibition | 70 | 0.03 ± 0.01 | 0.16 ± 0.02 | 0.18 ± 0.04 | virtually no discernible neointimal | dose-dependent microtubule bundling | significant inhibition | essentially complete inhibition | 8.30 | – | – | – | – |
| [2H]O[2H] [deuterium oxide] | – | – | – | – | – | – | – | – | – | – | – | – | – | – | – | – | nearly complete inhibition | 25 | inhibited cultured VSMC proliferation and DNA synthesis in a dose-dependent fashion | dose-dependent microtubule hyperpolymerization |
